Results reported in US5439940A, “Benz[e]indene derivatives” (priority 1992, dated 1995).
Read-outs that look alike come from different tables or passages of the source.

Experiments:
[1] = tested on: acetic acid writhing reactions; test: Analgesic effect (acetic acid writhing, Newbould); format: in vivo, mouse (NMRI); conditions: Mus musculus, 1 h, read-out: Analgesic effect ID50
Experimental: The characteristic "writhing reactions" were counted for a period of 5 minutes, starting from the fifth minute after challenge. […] Each group of animals consisted of at least 10 mice. […]

[2] = tested on: carrageen-induced paw volume; test: Antiinflammatory effect (carrageen paw, Winter et al.); format: in vivo, rat (Wistar); conditions: po, read-out: Antiinflammatory effect ID30
Experimental: The antiinflammatory effect was investigated on Wistar rats weighing 150-180 g according to the method of Winter et al. 0.1 ml of a 1 percent carrageen suspension was injected subcutaneously into the plantar region of one of the hind paws. The animals were fasted for 12 hours and received drinking water ad libitum. One hour before treatment with the test compound the rats were hydrated orally with 30 ml/kg of tap water. The test compounds and the vehicle were administered p.o. in a volume of 10 ml/kg, then 1 hour later carrageen was applied. The volume of the treated paw was measured by mercury-plethysmometer before and 3 hours after injection in such a way that displacement of the liquid arising from the volume alteration was indicated on a millimeter scale. […] A., Risley, E. A., Nuss, G. W.: Proc. Soc.

[3] = tested on: shocks tolerated; test: Anxiolytic effect (Vogel et al.); format: in vivo, rat (male Wistar)
Experimental: The anxiolytic effect was tested by using the method of Vogel et al. Male Wistar rats of 160-180 g bodyweight were kept free of food and drinking water for 24 and 48 hours, respectively. Test and carrier substances were administered intraperitoneally two hours before testing. Animals within the experimental chamber were provided with drinking water through an inserted tube. After the animals' each twenty lapping for water the device emitted a 2 mA intensity electric shock through the drinking tube. During 5 minutes the shocks tolerated by the animals in order to quench their thirst were counted. The effect of treatment was expressed as the % increase of the tolerated shocks. The minimum effective dose (MED) was determined for each test compound [Voqel, J. R., Beer, B., Clody, D. E.: Psychopharmacologia (Berl.) 21, 1 (1971)].

[4] = tested on: hexobarbital narcosis; test: Hexobarbital narcosis potentiating effect on mice; format: in vivo, mouse
Experimental: The hexobarbital narcosis potentiating effect was examined on mice. Groups consisting of 6 animals were used for each dose. The animals were treated orally with the test compound, whereby sleeping was induced 1 hour later by administering a 40 mg/kg i.v. dose of hexobarbital both to the test and control groups. […] ED50 values were calculated from the thus-transformed data [Kaergaard Nielsen C. et al., Arch. Int. Pharmacodyn. 2, 170 (1967)].

[5] = tested on: learned conditioned avoidance reflex; test: Antipsychotic effect: inhibition of conditioned avoidance reflex (shuttle box); format: in vivo, rat (male Wistar)
Experimental: The antipsychotic (neuroleptic) effect was measured by the inhibition of the learned conditioned avoidance reflex. The male Wistar rats used for the study were of 120-150 g bodyweight at the commencement of learning. […] In response to a suitable warning stimulus, in order to avoid the punishing (unconditioned) stimulus, animals within the box passed through the gate from one part over the other. The warning, i.e. conditioned stimulus (CS), a white light (1 Hz) blinking for 15 seconds, was applied at the place of the actual animal existence. The unconditioned stimulus (US), in form of 0.6 mA intensity electric shock, was randomly applied to the paw during the last 5 seconds of the conditioned stimulus. Animal's movement during the CS and US from one part of the box over the other, was defined as avoidance and escape responses, respectively. Both responses ceased the actual stimulus and stopped the trial. The time elapsed until the next trial (intertrial interval, ITI) was 15 seconds. While one experiment was carried out daily, an experiment consisted of 80 trials. Learning efficiency was expressed as percentage of the successful to the total avoidances. […] Dosing was carried out once a week, one hour before the measurement in the shuttle box.

[6] = tested on: experimental coronary insufficiency; test: Antianginal effect (glanduitrine-induced coronary insufficiency, Nieschultz); format: in vivo, rat (male); conditions: Rat2, iv; rat, 2 mg/kg, glanduitrine 4 NE/kg i.v., T-wave; read-out: Inhibition in a dose of 2 mg/kg
Experimental: The test was carried out on male rats weighing 180-220 g. The animals were narcotized with the aid of chloralose-urethane. ECG was registered by means of needle electrodes in standard II output. Antianginal effect was tested according to the method of Nieschultz. Experimental coronary insufficiency was induced by administering glanduitrine (4 NE/kg i.v.).

[7] = Acute toxicity on mice (oral LD50); conditions: mouse, in vivo, 7 days observation, maximal dose 1000 mg/kg
Experimental: Mice belonging to the NMRI strain (body weight 20-25 g, both male and female) were used, 6 to 10 animals for each dose. The test compound was administered orally in a volume of 20 ml/kg. The applied maximal dose was 1000 mg/kg. […] The mice were kept in a plastic cage at room temperature. The animals got tap water and standard mouse fodder ad libitum. The toxicity data were determined by the aid of the method of Litchfield and Wilcoxon [Litchfield, J. T., Wilcoxon, F. W.: J. Pharmacol. Exp. Ther., 96, 99 (1949)].

[8] = tested on: spontaneous motility; test: Spontaneous motility inhibiting activity (Dews equipment); format: in vivo; conditions: Mus musculus, 0.5 h; oral, beam interruptions within 30 minutes; read-out: Motility inhibiting activity ID50
Experimental: The spontaneous motility inhibiting activity was examined according to the method of Borsy et al. Groups consisting of 3 mice each were treated orally with different doses of the compounds to be tested, then the test animals were placed in a Dews equipment. In this equipment the number of interruptions of infrared beam within 30 minutes was counted. […] [Borsy, J., Csanyi, E., Lazar, I.: Arch. Int.. Pharmacodyn. 124, 1 (1960)].

[9] = tested on: catalepsy; test: Catalepsy; format: in vivo, rat (Wistar); conditions: rat
Experimental: The extrapyramidal syndrome, the most important side effect limiting the application of the neuroleptic drugs in man, can be produced in experimental animals in the form of catalepsy. Our experiments in 150-160 g Wistar rats were performed according to Morpurgo. The catalepsy, appearing 60 minutes after dosing, was scored as follows. Both forelegs of each animal were put for 10 seconds onto a rubber stopper of 3 cm height, then for additional 10 seconds onto a same stopper of 9 cm height. […] The procedure was repeated in each 30 minutes during four hours, obtaining scores proportional to the degree of the catalepsy. Results were used to calculate the minimum effective dose [MED, the lowest dose resulting statistically significant alteration, c.f.: Morpurgo, C.: Arch. Int.

[10] = mice, 0.75% acetic acid one hour after treatment
[11] = rat, p.o., 1 hour before carrageen, paw volume 3 hours after

SMILES	ED50 [1] [mg/kg]	ED30 ([2]; Rattus norvegicus, 3 h) [mg/kg]	minimal effective dose ([3]; ip, 2 h, rat, intraperitoneal, two hours before testing, read-out: Anxiolytic effect MED) [mg/kg]	anxiolytic effect compared with Chlordiazepoxide and Meprobamate (in words) ([3]; rat)	character in smaller doses (in words) ([3]; smaller doses)	ED50 ([4]; Mus musculus, oral, 1 hour before hexobarbital 40 mg/kg i.v., sleeping time >2.5 times control, read-out: ED50 hexobarbital narcosis potentiation) [mg/kg]	tranquillo-sedative activity rank (in words) ([4]; compared within the structural group)	ED50 ([5]; 1 h, rat, dosing one hour before measurement, read-out: Conditioned reflex ID50) [mg/kg]	character when administered in higher doses (in words) ([5]; higher doses)	antipsychotic effect compared with reference substances (in words) ([5]; rat)	ED50 [1, 10] [mg/kg]	inhibition in vivo at 2 mg/kg [6] [%]	ED30 [2, 11] [mg/kg]	LD50 at 168 h [7] [mg/kg]	ED50 [8] [mg/kg]	Therapeutic index (Catalepsy MED / Conditioned Reflex ID50) [9]	Catalepsy MED ([9]; scored from 60 minutes after dosing, four hours) [mg/kg]
CC(=O)Oc1ccccc1C(=O)O [Acetylsalicylic acid, reference compound]	261	62															
OC(CNC1CC1)CON=C1CCc2c1ccc1ccccc21 (stereo not shown) [Example 17, 3-[3-(Cyclopropylamino)-2-hydroxypropoxyimino]-2,3-dihydro-1H-benz[e]indene]			0.1	superior to the reference substances by orders of magnitude	anxiolytic	11	the most active member in the structural group	26.3	neuroleptic	superior to Thioridazine and inferior to Chlorpromazine	14	50	40	660	6	3.8	100
CC(=O)Nc1ccc(O)cc1 [Paracetamol, reference compound]											421		195				
